Source: ChEMBL document CHEMBL6096683, “Novel Orthosteric/Allosteric Ligands of Cannabinoid Receptors: An Unexpected Pharmacological Profile” (J Med Chem, 2025)
Activity calls are given as the source filed them. No cut-off for these calls is given here.

How the values were obtained:
Cannabinoid receptor 1 [1] = target: T1, Cannabinoid receptor 1 (Homo sapiens, UniProt P21554); experiment: Displacement of [3H]CP55940 from human CB1 receptor expressed in CHO cell membrane at 0.001 to 10 uM incubated for 2 hrs relative to control; assay type: cell membranes; conditions: dose 0.001-10 µM
T1 sequence (P21554 whole entry): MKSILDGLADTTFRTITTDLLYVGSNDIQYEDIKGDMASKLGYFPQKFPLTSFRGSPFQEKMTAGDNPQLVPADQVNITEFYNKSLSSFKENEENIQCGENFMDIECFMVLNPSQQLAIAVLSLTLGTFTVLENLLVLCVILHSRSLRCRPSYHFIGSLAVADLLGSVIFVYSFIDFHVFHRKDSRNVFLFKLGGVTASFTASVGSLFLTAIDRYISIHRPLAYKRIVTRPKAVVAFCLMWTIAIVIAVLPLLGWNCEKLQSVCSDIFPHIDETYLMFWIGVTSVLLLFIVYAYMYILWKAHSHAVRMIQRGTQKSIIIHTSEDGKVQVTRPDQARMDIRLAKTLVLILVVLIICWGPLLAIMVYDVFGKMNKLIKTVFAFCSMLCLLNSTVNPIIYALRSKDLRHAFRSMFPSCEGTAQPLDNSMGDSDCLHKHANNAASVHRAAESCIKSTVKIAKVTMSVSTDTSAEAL

Cannabinoid receptor 1 [2] = target: T1, Cannabinoid receptor 1; experiment: Agonist activity at human CB1 receptor expressed in CHO cells assessed as inhibition of forskolin-induced cAMP production at 100 nM incubated for 90 mins in presence of GAT211 ligand by HitHunter assay relative to control; assay type: functional, cell-based
Cannabinoid receptor 1 [3] = target: T1, Cannabinoid receptor 1; experiment: Displacement of [3H]CP55940 from human CB1 receptor expressed in CHO cell membrane incubated for 2 hrs; assay type: cell membranes
Cannabinoid receptor 1 [4] = target: T1, Cannabinoid receptor 1; experiment: Agonist activity at human CB1 receptor expressed in CHO cells assessed as inhibition of forskolin-induced cAMP production at 100 nM incubated for 90 mins in presence of CP55940 ligand by HitHunter assay relative to control; assay type: functional, cell-based
Cannabinoid receptor 1 [5] = target: T1, Cannabinoid receptor 1; experiment: Agonist activity at human CB1 receptor expressed in CHO cells assessed as inhibition of forskolin-induced cAMP production at 100 nM incubated for 90 mins in presence of FM6b ligand by HitHunter assay relative to control; assay type: functional, cell-based; conditions: filed as agonist
Cannabinoid receptor 2 [6] = target: T2, Cannabinoid receptor 2 (Homo sapiens, UniProt P34972); experiment: Displacement of [3H]CP55940 from human CB2 receptor expressed in CHO cell membrane at 0.001 to 10 uM incubated for 2 hrs relative to control; assay type: cell membranes; conditions: dose 0.001-10 µM
T2 sequence (P34972 whole entry): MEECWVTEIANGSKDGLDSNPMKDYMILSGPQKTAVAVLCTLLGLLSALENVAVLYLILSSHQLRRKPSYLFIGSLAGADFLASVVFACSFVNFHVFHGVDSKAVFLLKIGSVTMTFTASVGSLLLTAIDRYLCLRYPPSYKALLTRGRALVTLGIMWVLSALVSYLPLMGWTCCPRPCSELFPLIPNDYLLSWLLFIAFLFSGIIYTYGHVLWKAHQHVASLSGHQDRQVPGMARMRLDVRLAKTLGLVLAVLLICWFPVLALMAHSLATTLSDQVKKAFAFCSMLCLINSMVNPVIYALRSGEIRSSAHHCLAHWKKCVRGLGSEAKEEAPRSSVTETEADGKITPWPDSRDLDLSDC

Cannabinoid receptor 1 [7] = target: T1, Cannabinoid receptor 1; experiment: Agonist activity at human CB1 receptor expressed in CHO cells assessed as inhibition of forskolin-induced cAMP production incubated for 90 mins in presence of FM6b ligand by HitHunter assay; assay type: functional, cell-based
Cannabinoid receptor 1 [8] = target: T1, Cannabinoid receptor 1; experiment: Agonist activity at human CB1 receptor expressed in CHO cells assessed as inhibition of forskolin-induced cAMP production incubated for 90 mins in presence of CP55940 ligand by HitHunter assay; assay type: functional, cell-based
Cannabinoid receptor 2 [9] = target: T2, Cannabinoid receptor 2; experiment: Agonist activity at human CB2 receptor expressed in CHO cells assessed as inhibition of forskolin-induced cAMP production at 10 uM incubated for 90 mins by HitHunter assay; assay type: functional, cell-based; conditions: filed as agonist
Cannabinoid receptor 1 [10] = target: T1, Cannabinoid receptor 1; experiment: Agonist activity at human CB1 receptor expressed in CHO cells assessed as inhibition of forskolin-induced cAMP production incubated for 90 mins in presence of GAT211 ligand by HitHunter assay; assay type: functional, cell-based
Cannabinoid receptor 2 [11] = target: T2, Cannabinoid receptor 2; experiment: Displacement of [3H]CP55940 from human CB2 receptor expressed in CHO cell membrane incubated for 2 hrs; assay type: cell membranes; conditions: read-out: pIC50 (converted)
HepG2 [12] = experiment: Induction of lipid accumulation in human HepG2 cells at 1 uM incubated for 24 hrs by Oil Red O staining based analysis; assay type: functional, cell-based
BEND3 [13] = experiment: Disruption of monolayer integrity in mouse BEND3 cells assessed as change in TEER modulation at 180 mins; assay type: functional, cell-based
BEND3 [14] = experiment: Disruption of monolayer integrity in mouse BEND3 cells assessed as change in TEER modulation at 135 mins; assay type: functional, cell-based
HepG2 [15] = experiment: Anti-steatosis activity against oleate/palmitate-induced human HepG2 cells assessed as induction of lipolysis at 25 uM incubated for 24 hrs; assay type: functional, cell-based
Cannabinoid receptor 2 [16] = target: T2, Cannabinoid receptor 2; experiment: Agonist activity at human CB2 receptor expressed in CHO cells assessed as inhibition of forskolin-induced cAMP production at 1.8 nM incubated for 90 mins by HitHunter assay relative to control; assay type: functional, cell-based; design: scale not given: the % may be the effect or the level left; conditions: filed as agonist
Cannabinoid receptor 1 [17] = target: T1, Cannabinoid receptor 1; experiment: Displacement of [3H]CP55940 from human CB1 receptor; conditions: filed as agonist
Cannabinoid receptor 2 [18] = target: T2, Cannabinoid receptor 2; experiment: Displacement of [3H]CP55940 from human CB2 receptor; conditions: filed as agonist

| Structure (SMILES) | Emax (Cannabinoid receptor 1 [2]) | IC50 (Cannabinoid receptor 1 [3]) | Emax (Cannabinoid receptor 1 [5]) | Emax (Cannabinoid receptor 2 [6]; filed as agonist) | EC50 (Cannabinoid receptor 1 [7]) | EC50 (Cannabinoid receptor 1 [8]) | Activity (Cannabinoid receptor 2 [9]) | Emax (Cannabinoid receptor 1 [1]) | IC50 (Cannabinoid receptor 2 [11]) | also measured |
| --- | --- | --- | --- | --- | --- | --- | --- | --- | --- | --- |
| Cc1c(Br)cc(C(=O)NC2CCCCCC2)c(=O)n1CCCn1cc(CCCCC(=O)NCC(c2ccccc2)c2c(-c3ccccc3)[nH]c3ccccc23)nn1 (stereo unspecified) | 3.32% | 0.000631 µM | 67% | 97% | 0.0631 µM | 0.0251 µM | Active |  |  | Emax (Cannabinoid receptor 1 [1]; filed as agonist): 60%; Emax (Cannabinoid receptor 1 [4]): 31% |
| Cc1c(Br)cc(C(=O)NC2CCCCCC2)c(=O)n1CCCCCn1cc(CCCC(=O)NCC(c2ccccc2)c2c(-c3ccccc3)[nH]c3ccccc23)nn1 (stereo unspecified) | 24% | 0.0158 µM | 130% | 44% | 1.58 µM | 0.251 µM | Active | 0.12% | > 10 µM | EC50 (Cannabinoid receptor 1 [10]): 0.00501 µM; Emax (Cannabinoid receptor 1 [4]; filed as agonist): 122% |
| Cc1c(C(=O)NN2CCCCC2)nn(-c2ccc(Cl)cc2Cl)c1-c1ccc(Cl)cc1 |  |  |  |  |  |  |  |  |  | Activity (HepG2 [12]): Active |
| O=C1OC2(c3ccc(O)cc3Oc3cc(O)ccc32)c2ccccc21 |  |  |  |  |  |  |  |  |  | Activity (BEND3 [13]): Active; Activity (BEND3 [14]): Active |
| Cc1c(Br)cc(C(=O)NC2CCCCCC2)c(=O)n1Cc1ccc(F)cc1 |  | 0.000794 µM |  |  |  |  |  | 29% | 0.00631 µM | Activity (HepG2 [15]): inactive; Activity (Cannabinoid receptor 2 [16]): 104%; Emax (Cannabinoid receptor 2 [6]): 13%; Activity (Cannabinoid receptor 1 [17]): Active; Activity (Cannabinoid receptor 2 [18]): Active |
